Measured values from patent US9493466B2, “Treatment of cancer with TOR kinase inhibitors” (Signal Pharmaceuticals, LLC, priority 2011, dated 2016).

How the values were obtained:
Assay in all cases: Growth inhibition assay for breast cancer
Assay type in all cases: cell-based
BT-20 = BT-20 (Basal, TN), 96 hours
From the text: (§1) Growth Inhibition Assay for Breast Cancer (BC) (Compound 1). All breast cancer cell lines were maintained and tested in appropriate culture media. The seeding density for each cell line was optimized to ensure assay linearity in 384-well plates.
(§2) Increasing concentrations of Compound 1 were spotted via an acoustic dispenser (EDC ATS-100) into an empty 384-well plate. Compound 1 was spotted in a 10-point serial dilution fashion (3-fold dilution) in duplicate within the plate. The dimethyl sulfoxide (DMSO) concentration was kept constant for a final assay concentration of 0.1% DMSO. Plates were replicated for use against different cell lines and testing periods. After compound plate replication, all plates were sealed (Agilent ThermoLoc) and stored at −20° C. for up to 1 month. When ready for testing, plates were removed from the freezer, thawed, and unsealed just prior to the addition of the test cell.
(§3) Prior to testing, cells were grown and expanded in culture flasks to provide sufficient amounts of starting material. Cells were then diluted to their desired densities and added directly to the Compound 1-spotted 384-well plates. Cells were allowed to grow for 96 hours at 37° C./5% CO2. At the time of setup (t0), initial cell number was assessed via a viability assay (Cell Titer-Glo) and read for luminescence. After 96 hours, cell viability of Compound 1-treated cells was assessed via Cell Titer-Glo and read for luminescence.
(§4) Cell lines were assayed for growth inhibition by Compound 1 for at least two independent tests. All data was normalized and represented as a percentage of the DMSO-treated control cells. […] The potency of Compound 1 in different subtypes of breast cancer cell lines is shown in FIG. 7A, while the correlation of Compound 1 sensitivity to ER, HER, PIK3CA, and TP53 status is shown in FIG. 7B.

BT-483 = BT-483 (Luminal, ER+), 96 hours
From the text: as §1, §2, §3, §4

BT-549 = BT-549 (Basal, TN), 96 hours
From the text: as §1, §2, §3, §4

CAL-120 = CAL-120 (Basal, TN), 96 hours
From the text: as §1, §2, §3, §4

CAL-51 = CAL-51 (Basal, TN), 96 hours
From the text: as §1, §2, §3, §4

CAL-85-1 = CAL-85-1 (Basal, TN), 96 hours
From the text: as §1, §2, §3, §4

CAMA-1 = CAMA-1 (Luminal, ER+), 96 hours
From the text: as §1, §2, §3, §4

DU4475 = DU4475 (Basal, TN), 96 hours
From the text: as §1, §2, §3, §4

EFM-192A = EFM-192A (Luminal, Her2+), 96 hours
From the text: as §1, §2, §3, §4

HCC1187 = HCC1187 (Basal, TN), 96 hours
From the text: as §1, §2, §3, §4

HCC1500 = HCC1500 (Luminal, ER+), 96 hours
From the text: as §1, §2, §3, §4

HCC1569 = HCC1569 (Basal, Her2+), 96 hours
From the text: as §1, §2, §3, §4

HCC1954 = HCC1954 (Basal, Her2+), 96 hours
From the text: as §1, §2, §3, §4

HCC202 = HCC202 (Luminal, Her2+), 96 hours
From the text: as §1, §2, §3, §4

HCC2157 = HCC2157 (Basal, TN), 96 hours
From the text: as §1, §2, §3, §4

HCC38 = HCC38 (Basal, TN), 96 hours
From the text: as §1, §2, §3, §4

HCC70 = HCC70 (Basal, TN), 96 hours
From the text: as §1, §2, §3, §4

HS578T = HS578T (Basal, TN), 96 hours
From the text: as §1, §2, §3, §4

KPL-1 = KPL-1 (Luminal, ER+), 96 hours
From the text: as §1, §2, §3, §4

MCF12A = MCF12A (Basal, TN), 96 hours
From the text: as §1, §2, §3, §4

MDA-MB-157 = MDA-MB-157 (Basal, TN), 96 hours
From the text: as §1, §2, §3, §4

MDA-MB-175-VII = MDA-MB-175-VII (Luminal, ER+), 96 hours
From the text: as §1, §2, §3, §4

MDA-MB-231 = MDA-MB-231 (Basal, TN), 96 hours
From the text: as §1, §2, §3, §4

MDA-MB-361 = MDA-MB-361 (Luminal, Her2+), 96 hours
From the text: as §1, §2, §3, §4

MDA-MB-415 = MDA-MB-415 (Luminal, ER+), 96 hours
From the text: as §1, §2, §3, §4

MDA-MB-453 = MDA-MB-453 (Luminal, Her2+), 96 hours
From the text: as §1, §2, §3, §4

MDA-MB-468 = MDA-MB-468 (Basal, TN), 96 hours
From the text: as §1, §2, §3, §4

NCI/ADR-RES = NCI/ADR-RES (Basal, TN), 96 hours
From the text: as §1, §2, §3, §4

SK-BR-3 = SK-BR-3 (Luminal, Her2+), 96 hours
From the text: as §1, §2, §3, §4

T47D = T47D (Luminal, ER+), 96 hours
From the text: as §1, §2, §3, §4

ZR-75-1 = ZR-75-1 (Luminal, ER+), 96 hours
From the text: as §1, §2, §3, §4

Structure (SMILES): CO[C@H]1CC[C@H](N2C(=O)CNc3ncc(-c4ccc(C(C)(C)O)nc4)nc32)CC1 [Compound 1, 7-(6-(2-hydroxypropan-2-yl)pyridin-3-yl)-1-((1r,4r)-4-methoxycyclohexyl)-3,4-dihydropyrazino-[2,3-b]pyrazin-2(1H)-one]
- GI50 (BT-20): 0.33 µM
- GI50 (BT-483): 0.0217 µM
- GI50 (BT-549): 0.149 µM
- GI50 (CAL-120): 0.7 µM
- GI50 (CAL-51): 0.119 µM
- GI50 (CAL-85-1): 0.253 µM
- GI50 (CAMA-1): 0.146 µM
- GI50 (DU4475): 1.24 µM
- GI50 (EFM-192A): 0.192 µM
- GI50 (HCC1187): 0.567 µM
- GI50 (HCC1500): 0.0248 µM
- GI50 (HCC1569): 0.356 µM
- GI50 (HCC1954): 0.197 µM
- GI50 (HCC202): 0.0201 µM
- GI50 (HCC2157): 0.399 µM
- GI50 (HCC38): 2.95 µM
- GI50 (HCC70): 0.172 µM
- GI50 (HS578T): 0.343 µM
- GI50 (KPL-1): 0.0973 µM
- GI50 (MCF12A): 0.0444 µM
- GI50 (MDA-MB-157): 4.34 µM
- GI50 (MDA-MB-175-VII): 0.0408 µM
- GI50 (MDA-MB-231): 0.711 µM
- GI50 (MDA-MB-361): 0.0657 µM
- GI50 (MDA-MB-415): 0.169 µM
- GI50 (MDA-MB-453): 0.143 µM
- GI50 (MDA-MB-468): 1.86 µM
- GI50 (NCI/ADR-RES): 0.944 µM
- GI50 (SK-BR-3): 0.121 µM
- GI50 (T47D): 0.0553 µM
- GI50 (ZR-75-1): 0.0321 µM
